In paper PMC4122979, “The N-terminal portion of autoinhibitory element modulates human endothelial nitric-oxide synthase activity through coordinated controls of phosphorylation at Thr^495 and Ser^1177” (Bioscience Reports, 2014):

Columns and labels:
human CaM = assay: CaM mobility shift gel (CBD peptide binding to CaM); conditions: 200 pmol CaM; for order of binding affinity for CBD variants to CaM: densitometric analysis of attenuation of free CaM bands (I/I0 versus peptide:CaM ratio), 100 μM CaCl2, pH 7.5, triplicate gels (n=4 in Figure 5 legend); for CaM-peptide complex formation: non-denaturing, non-reducing PAGE (18% gel), peptide 0–2000 pmol, 1 h, 20 mM Tris, pH 7.5, 100 μM CaCl2, Coomassie staining
Description: Human CaM was purified essentially as described previously. CaM (200 pmol) was incubated with each peptide at several molar ratios for 1 h in 10 μl of buffer containing 20 mM Tris, pH 7.5 with 100 μM CaCl2. The sample was subjected to non-denaturing, non-reducing PAGE (18% gel) at 30 mA under high Ca^2+ conditions (100 μM free Ca^2+ in all gel buffers). Binding of peptides to CaM was visualized by Coomassie Brilliant Blue R-250 staining. The relative amount of CaM on the gel at each peptide concentration (I) was determined by densitometry and normalized to CaM in the absence of peptide (I0). The data are plotted as the mean I/I0±S.D. (n=4) versus peptide:CaM ratio.
What needs to be explained is why a similar activation of eNOS is observed with little effect on phosphorylation of Thr^495 in mutant Δ605. Thus, it is difficult at this stage to conclude the precise roles of Thr^495 dephosphorylation in the activation of eNOS. Conflicting conclusions have also been drawn from earlier observations in the role of Thr^495 phosphorylation with eNOS activation. It has been reported that eNOS activity is increased by phosphorylation of Ser^1177 despite enhanced Thr^495 phosphorylation. […] To resolve this discrepancy, we synthesized peptides representing heNOS CBD (residues 491–510) with point mutations at Thr^495 site (Figure 5A) and determined the apparent affinity of the CBD variants to CaM. Each peptide with increasing concentrations (0–2000 pmol) was incubated with purified CaM at a fixed concentration (200 pmol) in the presence of 100 μM CaCl2. The mixtures were electrophoresed on non-reducing, non-denaturing gels. […] Peptide–CaM complexes migrate as higher molecular weight bands than free CaM in the presence of calcium. […] The extent of CaM-peptide interaction was assessed by densitometric analysis of attenuation of free CaM bands in the presence of increasing concentrations of each peptide.
Figure 5 Interaction of synthetic CBD peptides with calcium/CaM (A) Peptide CBD sequences (residues 491–510, based on heNOS) with unmodified T495 (T495), phosphonull A substitution (A495, red colour), phosphomimetic substitution (D495, blue colour) and phosphorylated T495 (pT495, brown colour) are indicated. (B) The synthetic CBD variants were incubated with CaM (200 pmol) by increasing peptide:CaM molar ratios in the presence of 100 μM CaCl2 before electrophoresis. The samples were analysed on 18% non-denaturing gels and visualized with Coomassie Brilliant Blue R-250. Representative Coomassie Brilliant Blue-stained gels of samples containing CaM and increasing molar ratios of T495, A495, D495 and pT495 are shown. The first lane in each gel contains CaM only, i.e., CBD/CaM ratio is 0. The rest CBD/CaM ratios were 0.1:1 (2nd lane), 0.2:1 (3rd lane), 0.4:1 (4th lane), 0.8:1 (5th lane), 1.6:1 (6th lane), 3.2:1 (7th lane), 6.4:1 (8th lane) and 12.8:1 (9th lane). CBD–CaM complexes and free CaM are denoted. (C) The relative amount of CaM on the gel at each peptide concentration (I) was determined by densitometry and normalized to CaM in the absence of peptide (I0). The data are plotted as the mean I/I0±S.D. (n=4) versus peptide:CaM ratio.

eNOS [1] = assay: Inhibition of eNOS oxygenase activity (L-[^3H]citrulline formation) by CBD peptides; type: biochemical, human; conditions: 10 μM peptide; for inhibition of L-citrulline formation: relative to rate without peptide, mean of triplicate experiments; for order of inhibitory potency to eNOS activity: inter-domain electron transfer (citrulline formation): same order stated for CaM binding affinity
Description: (§1) The expression and purification of eNOS from Sf21 cells was carried out essentially same as previously reported. The inhibition of eNOS oxygenase activity by unmodified or modified CBDs was tested at 37°C for 4 min by measuring L-[^3H]citrulline formation in a mixture containing 25 mM Tris, pH 7.5, 100 mM NaCl, 0.5 μM CaM, 0.2 mM EDTA, 0.3 mM CaCl2, 100 μM β-NADPH, 10 μM H4B, 20 μM L-arginine, 1 μCi of L-[^3H]arginine, 100 nM eNOS, and in the presence or absence of 10 μM of each peptide. Cytochrome c reduction was determined at room temperature (25°C) in a reaction mixture containing 25 mM Tris–HCl, pH 7.5, 100 mM NaCl, 10% glycerol, 50 μM cytochrome c, 0.5 μM CaM, 100 μM CaCl2 and 100 μM β-NADPH in the presence or absence of 10 μM of each peptide. The reaction was initiated by addition of 50 nM eNOS and monitored at 550 nm in a GE geneQuant100 spectrophotometer. Activity was determined using a ΔE550=21 mM^−1cm^−1. An assay in the absence of CaM was carried out to serve as baseline reference.
(§2) Figure 6 Evaluation of inhibitory potency of CBD variants on eNOS activity Modified or unmodified CBD peptides were assessed for their ability to inhibit (A) citrulline formation activity and (B) Cytochrome c reduction. CR denotes a complete reaction mixture; CR-CaM denotes omission of CaM from the complete reaction mixture; CR+T495 indicates the addition of 10 μM of unmodified CBD (T495) to the complete reaction mixture; CR+A495 denotes the addition of 10 μM of phosphonull CBD (A495) to the complete reaction mixture; CR+D495 indicates the addition of 10 μM of phosphomimetic CBD (D495) to the complete reaction mixture; CR+pT495 denotes the addition of 10 μM of phosphorylated CBD (pT495) to the complete reaction mixture. The complete reaction mixture for L-[^3H]citrulline formation contains 25 mM Tris, pH 7.5, 100 mM NaCl, 0.5 μM CaM, 0.2 mM EDTA, 0.3 mM CaCl2, 100 μM β-NADPH, 10 μM H4B, 20 μM L-arginine, 1 μCi of L-[^3H]arginine, 100 nM eNOS. The complete reaction mixture for cytochrome c reduction contains 25 mM Tris–HCl, pH 7.5, 100 mM NaCl, 10% glycerol, 50 μM cytochrome c, 0.5 μM CaM, 100 μM CaCl2 and 100 μM β-NADPH. The catalytic activity was normalized to give percentages relative to the reaction rate in the absence of each peptide. Each bar represents mean±S.D. of triplicate experiments. Under these conditions, the activities for eNOS bound to CaM were 12±2/min for citrulline formation, and 295±15/min for cytochrome c reduction. Data are presented as means±S.D.*denotes P<0.05, ** P<0.01, NS, not significant difference as compared with that in the absence of synthetic CBD peptides. Each experiment was performed in triplicate and repeated three times.

eNOS [2] = assay: Inhibition of eNOS reductase activity (cytochrome c reduction) by CBD peptides; type: biochemical, human; conditions: 10 μM peptide; for inhibition of cytochrome c reductase activity / effect on cytochrome c reduction (electron transfer within reductase domain), in words: 50 nM eNOS, 0.5 μM CaM, 100 μM CaCl2, 50 μM cytochrome c, 100 μM β-NADPH, pH 7.5, 25°C, 550 nm; for inhibition of cytochrome c reductase activity: relative to rate without peptide, mean of triplicate experiments; for order of inhibitory potency to eNOS activity: intra-domain electron transfer (cytochrome c reduction): same order stated for CaM binding affinity
Description: as §1, §2

[3] = 100 nM eNOS, 0.5 μM CaM, 0.3 mM CaCl2, 20 μM L-arginine, pH 7.5, 37°C, 4 min

| Substance | order of binding affinity for CBD variants to CaM (human CaM) | CaM-peptide complex formation (human CaM) | inhibition of L-citrulline formation (eNOS [1]; [3]) [%] | order of inhibitory potency to eNOS activity: inter-domain electron transfer (citrulline formation) (eNOS [1]) | inhibition of cytochrome c reductase activity (eNOS [2]) [%] | order of inhibitory potency to eNOS activity: intra-domain electron transfer (cytochrome c reduction) (eNOS [2]) | effect on cytochrome c reduction (electron transfer within reductase domain), in words (eNOS [2]) | effect on eNOS oxygenase activity (citrulline formation), in words (eNOS [1]; [3]) |
| --- | --- | --- | --- | --- | --- | --- | --- | --- |
| TRKKA^495FKEVANAVKISASLM [A495, phospho-null CBD peptide, heNOS residues 491–510] | T495>A495>D495>pT495 | also showed CaM-peptide binding | 70 | T495>A495>D495>pT495 | 90 | T495>A495>D495>pT495 | – | – |
| TRKKD^495FKEVANAVKISASLM [D495, phosphomimetic CBD peptide, heNOS residues 491–510] | T495>A495>D495>pT495 | also showed CaM-peptide binding | 20 | T495>A495>D495>pT495 | 75 | T495>A495>D495>pT495 | – | – |
| TRKKT^495FKEVANAVKISASLM [T495, Unmodified CBD peptide, heNOS residues 491–510] | T495>A495>D495>pT495 | exhibited increases in CaM–peptide complex bands and reciprocal attenuation of free CaM bands | 87 | T495>A495>D495>pT495 | – | T495>A495>D495>pT495 | inhibits the activity completely | – |
| TRKKpT^495FKEVANAVKISASLM [pT495, phosphorylated CBD peptide, heNOS residues 491–510] | T495>A495>D495>pT495 | nearly no detectable peptide-CaM complex | – | T495>A495>D495>pT495 | – | T495>A495>D495>pT495 | virtually no inhibition on electron transfer within reductase domain | did not interfere with eNOS oxygenase activity |
